Broadly, the remaining activity is the signal under treatment as a percentage of the control signal.

Molecules are shown by their SMILES. Read-outs that look alike come from different tables or passages of the source.

Experimental findings from article PMC6757289, “Design and Characterization of SGK3-PROTAC1, an Isoform Specific SGK3 Kinase PROTAC Degrader” (ACS Chemical Biology, 2019) are described below.

Test in all cases: kinase profiling panel
Holding throughout (assay type): biochemical
Common to all, as to conditions: read-out: % Activity Remaining

One experiment addresses MARK3 (Homo sapiens, UniProt P27448). The text has this: (§1) Protein kinase profiling against a Dundee panel of 140 protein kinases was undertaken at the International Centre for Protein Kinase Profiling. The result for each kinase was presented as a mean kinase activity of the reaction taken in triplicate relative to a control sample treated with DMSO. Assay conditions and abbreviations are available at http://www.kinase-screen.mrc.ac.uk.

The target in the next experiment is PIM3 (Homo sapiens, UniProt Q86V86).
Description: as §1

A further experiment has as its target T1, TBK1 (Homo sapiens, UniProt Q9UHD2).
T1 sequence (Q9UHD2 1-729): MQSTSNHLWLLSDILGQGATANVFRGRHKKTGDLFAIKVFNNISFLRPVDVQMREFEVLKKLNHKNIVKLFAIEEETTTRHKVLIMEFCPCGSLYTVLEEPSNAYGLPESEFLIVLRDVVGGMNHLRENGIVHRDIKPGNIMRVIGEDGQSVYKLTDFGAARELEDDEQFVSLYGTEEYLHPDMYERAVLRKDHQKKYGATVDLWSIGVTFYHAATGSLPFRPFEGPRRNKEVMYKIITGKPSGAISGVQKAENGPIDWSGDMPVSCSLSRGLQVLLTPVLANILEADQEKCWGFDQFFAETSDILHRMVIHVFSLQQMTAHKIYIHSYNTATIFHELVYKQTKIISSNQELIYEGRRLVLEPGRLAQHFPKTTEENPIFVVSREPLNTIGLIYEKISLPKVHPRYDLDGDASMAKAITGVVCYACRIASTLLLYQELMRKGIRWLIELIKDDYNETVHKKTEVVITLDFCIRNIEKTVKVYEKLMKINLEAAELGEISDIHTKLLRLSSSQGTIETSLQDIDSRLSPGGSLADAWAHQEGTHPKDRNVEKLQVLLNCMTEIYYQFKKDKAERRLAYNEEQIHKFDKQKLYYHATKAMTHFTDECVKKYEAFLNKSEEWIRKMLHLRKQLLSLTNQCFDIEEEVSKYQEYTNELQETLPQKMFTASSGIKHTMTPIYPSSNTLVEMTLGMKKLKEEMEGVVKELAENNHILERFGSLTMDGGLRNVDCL
Description: as §1

A further experiment deals with TTBK2 (Homo sapiens, UniProt Q6IQ55).
Description: as §1

The next experiment concerns the target T2, MAP4K3 (Homo sapiens, UniProt Q8IVH8).
T2 sequence (Q8IVH8 1-894): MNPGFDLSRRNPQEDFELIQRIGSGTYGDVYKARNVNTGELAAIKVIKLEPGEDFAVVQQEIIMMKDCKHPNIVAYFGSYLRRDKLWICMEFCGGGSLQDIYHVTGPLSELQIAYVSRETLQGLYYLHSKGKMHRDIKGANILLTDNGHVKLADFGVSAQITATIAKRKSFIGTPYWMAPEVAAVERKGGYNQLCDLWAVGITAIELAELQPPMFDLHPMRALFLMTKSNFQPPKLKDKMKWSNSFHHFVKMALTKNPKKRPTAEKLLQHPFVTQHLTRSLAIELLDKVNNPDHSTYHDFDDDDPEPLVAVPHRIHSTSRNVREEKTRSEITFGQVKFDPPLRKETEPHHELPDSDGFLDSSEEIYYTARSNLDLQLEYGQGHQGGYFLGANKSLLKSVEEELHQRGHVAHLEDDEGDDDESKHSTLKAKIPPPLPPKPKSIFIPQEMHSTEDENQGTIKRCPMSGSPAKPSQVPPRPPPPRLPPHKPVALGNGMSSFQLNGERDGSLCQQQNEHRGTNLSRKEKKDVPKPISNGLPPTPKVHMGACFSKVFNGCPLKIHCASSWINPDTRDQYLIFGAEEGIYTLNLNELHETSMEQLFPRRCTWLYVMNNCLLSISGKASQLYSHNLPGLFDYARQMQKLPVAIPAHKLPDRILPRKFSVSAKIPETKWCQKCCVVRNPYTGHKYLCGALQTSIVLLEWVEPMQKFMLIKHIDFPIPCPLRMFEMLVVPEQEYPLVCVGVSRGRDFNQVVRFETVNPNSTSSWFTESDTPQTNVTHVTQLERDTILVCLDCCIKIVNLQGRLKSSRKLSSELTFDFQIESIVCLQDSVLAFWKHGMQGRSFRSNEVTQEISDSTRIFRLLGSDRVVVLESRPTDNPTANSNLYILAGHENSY
Description: as §1

The target of another experiment is JNK3 (Homo sapiens, UniProt P53779).
Description: as §1

Another experiment concerns the target T3, PKD1 (Homo sapiens, UniProt Q15139).
T3 sequence (Q15139 1-912): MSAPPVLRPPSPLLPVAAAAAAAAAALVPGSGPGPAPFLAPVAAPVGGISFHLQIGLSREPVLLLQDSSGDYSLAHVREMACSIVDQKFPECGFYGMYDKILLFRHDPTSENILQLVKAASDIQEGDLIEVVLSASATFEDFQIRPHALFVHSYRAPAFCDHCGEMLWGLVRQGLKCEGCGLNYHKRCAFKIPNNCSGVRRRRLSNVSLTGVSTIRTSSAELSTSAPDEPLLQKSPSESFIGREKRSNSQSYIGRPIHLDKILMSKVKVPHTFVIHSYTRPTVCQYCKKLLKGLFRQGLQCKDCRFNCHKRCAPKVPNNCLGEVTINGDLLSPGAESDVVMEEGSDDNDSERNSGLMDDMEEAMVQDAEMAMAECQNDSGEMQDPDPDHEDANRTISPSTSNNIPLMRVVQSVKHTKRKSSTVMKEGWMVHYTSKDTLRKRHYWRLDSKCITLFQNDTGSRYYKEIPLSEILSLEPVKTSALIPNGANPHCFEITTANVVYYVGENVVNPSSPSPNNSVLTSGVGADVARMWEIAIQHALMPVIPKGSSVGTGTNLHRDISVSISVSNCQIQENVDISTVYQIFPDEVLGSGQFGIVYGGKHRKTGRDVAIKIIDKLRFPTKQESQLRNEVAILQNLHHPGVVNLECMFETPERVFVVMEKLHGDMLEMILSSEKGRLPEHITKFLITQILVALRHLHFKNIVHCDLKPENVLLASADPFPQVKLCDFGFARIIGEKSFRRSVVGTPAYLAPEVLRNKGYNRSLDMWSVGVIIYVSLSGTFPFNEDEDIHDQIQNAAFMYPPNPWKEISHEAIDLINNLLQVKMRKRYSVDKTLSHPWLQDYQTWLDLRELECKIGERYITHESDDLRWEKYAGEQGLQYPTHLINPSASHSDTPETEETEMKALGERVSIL
Description: as §1

The target of another experiment is Aurora B (Homo sapiens, UniProt Q96GD4).
Description: as §1

The target in a further experiment is IRR (Homo sapiens, UniProt P14616).
Description: as §1

Chain of MARK3 (P27448 whole entry): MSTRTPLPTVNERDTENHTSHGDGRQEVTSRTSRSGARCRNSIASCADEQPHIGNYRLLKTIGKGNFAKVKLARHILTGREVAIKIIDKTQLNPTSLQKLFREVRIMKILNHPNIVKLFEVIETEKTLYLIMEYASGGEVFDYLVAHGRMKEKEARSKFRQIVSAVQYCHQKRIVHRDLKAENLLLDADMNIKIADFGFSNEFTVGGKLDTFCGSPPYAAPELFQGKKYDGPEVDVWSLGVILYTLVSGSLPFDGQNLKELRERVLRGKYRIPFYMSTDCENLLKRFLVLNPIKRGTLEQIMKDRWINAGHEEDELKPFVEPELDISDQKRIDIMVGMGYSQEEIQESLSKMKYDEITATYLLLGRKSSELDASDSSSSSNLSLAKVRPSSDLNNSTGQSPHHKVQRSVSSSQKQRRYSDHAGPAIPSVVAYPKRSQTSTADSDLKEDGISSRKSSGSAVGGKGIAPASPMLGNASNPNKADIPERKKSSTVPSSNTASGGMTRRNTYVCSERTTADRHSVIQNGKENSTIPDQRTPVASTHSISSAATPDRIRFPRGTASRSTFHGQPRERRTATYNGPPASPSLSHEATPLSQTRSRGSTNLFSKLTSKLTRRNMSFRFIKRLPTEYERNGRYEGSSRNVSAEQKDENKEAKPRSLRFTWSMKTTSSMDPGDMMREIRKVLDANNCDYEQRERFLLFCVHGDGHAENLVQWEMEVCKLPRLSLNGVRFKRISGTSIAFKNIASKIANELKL
Chain of Aurora B (Q96GD4 whole entry): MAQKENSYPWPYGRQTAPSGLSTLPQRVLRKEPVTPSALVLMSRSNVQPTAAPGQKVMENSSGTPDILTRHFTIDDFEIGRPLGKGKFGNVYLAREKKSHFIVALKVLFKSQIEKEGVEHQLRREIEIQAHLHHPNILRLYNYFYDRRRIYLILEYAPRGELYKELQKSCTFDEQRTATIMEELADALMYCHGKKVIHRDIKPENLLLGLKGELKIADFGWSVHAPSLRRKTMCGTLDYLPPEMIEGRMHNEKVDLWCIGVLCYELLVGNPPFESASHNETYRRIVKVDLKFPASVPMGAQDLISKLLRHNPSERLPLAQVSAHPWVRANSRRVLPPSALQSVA
Chain of JNK3 (P53779 whole entry): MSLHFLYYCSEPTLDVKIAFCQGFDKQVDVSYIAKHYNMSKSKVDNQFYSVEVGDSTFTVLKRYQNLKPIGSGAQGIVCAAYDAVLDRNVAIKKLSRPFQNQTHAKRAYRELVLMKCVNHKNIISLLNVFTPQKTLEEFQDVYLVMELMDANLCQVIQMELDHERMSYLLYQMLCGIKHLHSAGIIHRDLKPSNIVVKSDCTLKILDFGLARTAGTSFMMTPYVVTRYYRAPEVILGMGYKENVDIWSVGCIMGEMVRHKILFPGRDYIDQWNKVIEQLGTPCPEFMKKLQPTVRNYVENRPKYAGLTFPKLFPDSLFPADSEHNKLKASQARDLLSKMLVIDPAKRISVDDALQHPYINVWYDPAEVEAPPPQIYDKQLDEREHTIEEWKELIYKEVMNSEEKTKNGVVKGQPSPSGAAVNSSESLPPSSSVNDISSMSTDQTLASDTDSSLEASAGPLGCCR
Chain of TTBK2 (Q6IQ55 whole entry): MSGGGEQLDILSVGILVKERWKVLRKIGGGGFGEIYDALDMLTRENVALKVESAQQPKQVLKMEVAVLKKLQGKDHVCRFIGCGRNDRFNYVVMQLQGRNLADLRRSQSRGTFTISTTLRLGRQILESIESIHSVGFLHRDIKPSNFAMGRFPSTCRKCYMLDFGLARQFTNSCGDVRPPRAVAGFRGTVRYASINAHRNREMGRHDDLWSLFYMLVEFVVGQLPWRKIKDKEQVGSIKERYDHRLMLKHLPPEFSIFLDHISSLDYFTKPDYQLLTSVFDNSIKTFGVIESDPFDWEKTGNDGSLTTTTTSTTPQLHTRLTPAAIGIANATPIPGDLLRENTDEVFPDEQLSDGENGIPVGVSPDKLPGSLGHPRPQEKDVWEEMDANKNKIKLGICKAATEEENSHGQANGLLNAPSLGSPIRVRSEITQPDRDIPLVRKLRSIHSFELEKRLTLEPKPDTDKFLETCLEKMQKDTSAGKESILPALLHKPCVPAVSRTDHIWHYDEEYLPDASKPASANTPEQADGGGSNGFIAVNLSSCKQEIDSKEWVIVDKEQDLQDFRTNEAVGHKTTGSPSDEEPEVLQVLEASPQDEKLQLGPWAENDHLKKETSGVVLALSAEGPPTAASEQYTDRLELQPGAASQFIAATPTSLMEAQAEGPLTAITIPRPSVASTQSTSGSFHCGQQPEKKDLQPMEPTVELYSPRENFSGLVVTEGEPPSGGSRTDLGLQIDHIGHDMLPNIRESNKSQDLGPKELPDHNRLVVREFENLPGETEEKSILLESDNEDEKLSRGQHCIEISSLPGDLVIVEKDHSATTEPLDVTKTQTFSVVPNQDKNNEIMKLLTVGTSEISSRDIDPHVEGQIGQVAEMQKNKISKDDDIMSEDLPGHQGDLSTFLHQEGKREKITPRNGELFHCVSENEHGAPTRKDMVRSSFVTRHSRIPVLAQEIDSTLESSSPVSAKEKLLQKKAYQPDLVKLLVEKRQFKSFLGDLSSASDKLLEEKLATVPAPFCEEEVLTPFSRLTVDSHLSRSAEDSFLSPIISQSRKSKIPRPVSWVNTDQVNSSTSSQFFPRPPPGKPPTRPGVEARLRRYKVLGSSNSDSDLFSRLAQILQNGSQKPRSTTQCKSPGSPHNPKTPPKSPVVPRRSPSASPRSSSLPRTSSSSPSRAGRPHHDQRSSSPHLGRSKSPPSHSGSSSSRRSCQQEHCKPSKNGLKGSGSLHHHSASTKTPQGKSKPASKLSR
Chain of IRR (P14616 27-1297): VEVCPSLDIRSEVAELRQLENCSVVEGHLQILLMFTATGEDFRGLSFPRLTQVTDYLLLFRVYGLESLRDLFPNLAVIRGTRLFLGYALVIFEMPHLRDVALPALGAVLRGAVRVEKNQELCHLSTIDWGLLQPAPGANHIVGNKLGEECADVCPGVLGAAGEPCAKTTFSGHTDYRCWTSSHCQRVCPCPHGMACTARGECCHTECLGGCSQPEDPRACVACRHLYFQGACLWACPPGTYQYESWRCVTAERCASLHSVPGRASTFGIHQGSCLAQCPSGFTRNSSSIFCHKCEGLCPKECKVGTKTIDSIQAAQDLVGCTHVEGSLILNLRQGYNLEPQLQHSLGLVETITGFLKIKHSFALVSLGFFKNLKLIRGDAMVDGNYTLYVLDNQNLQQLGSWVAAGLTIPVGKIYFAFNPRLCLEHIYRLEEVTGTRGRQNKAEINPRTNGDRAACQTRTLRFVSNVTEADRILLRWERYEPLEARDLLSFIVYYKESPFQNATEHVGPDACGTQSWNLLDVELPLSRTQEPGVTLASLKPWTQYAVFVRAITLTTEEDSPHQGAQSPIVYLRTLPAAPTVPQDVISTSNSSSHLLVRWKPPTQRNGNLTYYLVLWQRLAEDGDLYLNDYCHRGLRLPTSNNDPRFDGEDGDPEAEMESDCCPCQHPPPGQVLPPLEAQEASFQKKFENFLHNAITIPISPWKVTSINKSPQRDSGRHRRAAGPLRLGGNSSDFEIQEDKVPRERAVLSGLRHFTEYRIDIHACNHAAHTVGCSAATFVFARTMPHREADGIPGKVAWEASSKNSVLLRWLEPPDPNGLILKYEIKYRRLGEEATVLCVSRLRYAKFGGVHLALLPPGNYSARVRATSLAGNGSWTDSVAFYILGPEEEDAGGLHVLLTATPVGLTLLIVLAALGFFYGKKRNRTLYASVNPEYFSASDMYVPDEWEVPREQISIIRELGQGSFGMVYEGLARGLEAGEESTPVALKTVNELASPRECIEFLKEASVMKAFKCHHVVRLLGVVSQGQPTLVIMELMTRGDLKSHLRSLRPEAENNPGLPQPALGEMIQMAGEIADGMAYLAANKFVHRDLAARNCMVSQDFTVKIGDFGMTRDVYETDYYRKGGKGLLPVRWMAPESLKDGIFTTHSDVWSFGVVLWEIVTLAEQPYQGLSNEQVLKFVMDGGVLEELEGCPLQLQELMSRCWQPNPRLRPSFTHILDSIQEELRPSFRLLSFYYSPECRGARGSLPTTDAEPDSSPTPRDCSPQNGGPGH

As for `COc1ccc(Cl)c(S(=O)(=O)Nc2ccc(-c3nc(OC[C@H]4CNCCO4)c4c(C)n[nH]c4n3)cc2)c1` [290-R, reference compound], the remaining activity at 1 µM at MARK3 stood at 89%; at PIM3, 105%; at TBK1, 62%; at TTBK2, 114%; on MAP4K3 it was 2%; on JNK3 it was 104%. The remaining activity at 1 µM turned out to be 15% on PKD1, 70% on Aurora B and 96% on IRR.

For the molecule `Cc1ccc(F)c(S(=O)(=O)Nc2ccc(-c3nc(OC[C@H]4CNCCO4)c4cn[nH]c4n3)cc2)c1` [308-R, reference compound], the remaining activity at 1 µM at MARK3 is 103%; on PIM3, 76%; on TBK1, 83%; on TTBK2 it was 87%; on MAP4K3, 8%; on JNK3, 112%. Moreover, the values for the remaining activity at 1 µM on PKD1, at Aurora B and on IRR were 37%, 115% and 106%, respectively.

Regarding `Cc1ccc(F)c(S(=O)(=O)Nc2ccc(-c3nc(OC[C@H]4CN(CCCCCCOCCOCCOCC(=O)N[C@H](C(=O)N5C[C@H](O)C[C@H]5C(=O)NCc5ccc(-c6scnc6C)cc5)C(C)(C)C)CCO4)c4cn[nH]c4n3)cc2)c1` [SGK3-PROTAC1], the remaining activity at 1 µM amounted to 98% at MARK3 (1 µM); 88% on PIM3 (1 µM); 93% at TBK1 (1 µM); 94% on TTBK2 (1 µM); 99% on MAP4K3 (1 µM); 92% on JNK3 (1 µM). Also, the remaining activity at 1 µM was 94% on PKD1 (1 µM), 93% on Aurora B (1 µM) and 103% at IRR (1 µM).

As for `Cc1ccc(F)c(S(=O)(=O)Nc2ccc(-c3nc(OC[C@H]4CN(CCCCCCOCCOCCOCC(=O)N[C@H](C(=O)N5C[C@@H](O)C[C@H]5C(=O)NCc5ccc(-c6scnc6C)cc5)C(C)(C)C)CCO4)c4cn[nH]c4n3)cc2)c1` [cisSGK3-PROTAC1], the remaining activity at 1 µM worked out at 109% at MARK3 (1 µM); 89% at PIM3 (1 µM); 111% at TBK1 (1 µM); 90% at TTBK2 (1 µM); 95% on MAP4K3 (1 µM); 83% at JNK3 (1 µM). The remaining activity at 1 µM amounted to 92% on PKD1 (1 µM), 95% on Aurora B (1 µM) and 90% on IRR (1 µM).
